How the values were obtained:
Type in all cases: cell-based
BRAF V600E = target: T1, BRAF V600E (Homo sapiens, UniProt P15056, V600E); experiment: BRAF HiBiT degradation assay, C-terminal HiBiT-tagged BRAF V600E A375 cells (clone 1F10), Nano-Glo HiBiT Lytic assay; settings: A375 (BRAF V600E); for DC50: DC50 at 50%: fitted conc. at Y=50; for Dmax: A-375, percentage protein degraded at maximal compound effect relative to DMSO
T1 construct: endogenous C-terminal HiBiT fusion tag on BRAF V600E allele; endogenous in cells; host or cells: A375 clone 1F10 (CRISPR-Cas9 knock-in of the HiBiT tag; parental A375 from ATCC)
Procedure, shortened: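 Luminescence from the Nano-Glo HiBiT lytic read-out gave % BRAF V600E remaining versus DMSO-treated tagged cells, with untagged A375 as background. Clone 1F10 cells (10,000/well, 24 h pre-culture) received compound at 1 μM–0.01 nM in half-log steps, 0.2% DMSO; curve fits gave DC50 at Y=50, plus observed Dmax.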

BRAF G466V = target: T2, BRAF G466V (Homo sapiens, UniProt P15056, G466V); experiment: BRAF HiBiT degradation assay, C-terminal HiBiT-tagged BRAF G466V overexpressed in HCT-116 BRAF−/− cells (clone 8), Nano-Glo HiBiT Lytic assay; settings: BRAF G466V; for DC50: DC50 at 50%: fitted conc. at Y=50; for Dmax: HCT-116, percentage protein degraded at maximal compound effect relative to DMSO
T2 construct: Horizon Discovery (HCT-116 BRAF−/− cells); host or cells: HCT-116 BRAF−/− cells, clone 8, lentiviral transduction
Procedure, shortened: (§1)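 Degradation was read by Nano-Glo HiBiT lytic luminescence, normalised to DMSO-treated tagged cells with wildtype HCT-116 as background. Test cells were lentiviral clones of HCT-116 BRAF−/− carrying HiBiT-tagged mutants in RPMI/10% FBS, given compound at 0.01 nM–1 μM in duplicate. Outputs are the curve-fitted concentration giving 50% degradation and the maximal observed degradation.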

BRAF D594G = target: T3, BRAF D594G (Homo sapiens, UniProt P15056, D594G); experiment: BRAF HiBiT degradation assay, C-terminal HiBiT-tagged BRAF D594G overexpressed in HCT-116 BRAF−/− cells (clone 63), Nano-Glo HiBiT Lytic assay; settings: BRAF D594G; for DC50: DC50 at 50%: fitted conc. at Y=50; for Dmax: HCT-116, percentage protein degraded at maximal compound effect relative to DMSO
T3 construct: Horizon Discovery (HCT-116 BRAF−/− cells); host or cells: HCT-116 BRAF−/− cells, clone 63, lentiviral transduction
Procedure, shortened: as §1

BRAF G469A = target: T4, BRAF G469A (Homo sapiens, UniProt P15056, G469A); experiment: BRAF HiBiT degradation assay, C-terminal HiBiT-tagged BRAF G469A overexpressed in HCT-116 BRAF−/− cells (clone 34), Nano-Glo HiBiT Lytic assay; settings: Class 2, BRAF G469A; for DC50: DC50 at 50%: fitted conc. at Y=50; for Dmax: HCT-116, percentage protein degraded at maximal compound effect relative to DMSO
T4 construct: Horizon Discovery (HCT-116 BRAF−/− cells); host or cells: HCT-116 BRAF−/− cells, clone 34, lentiviral transduction
Procedure, shortened: as §1

T2 sequence (P15056 whole entry G466V): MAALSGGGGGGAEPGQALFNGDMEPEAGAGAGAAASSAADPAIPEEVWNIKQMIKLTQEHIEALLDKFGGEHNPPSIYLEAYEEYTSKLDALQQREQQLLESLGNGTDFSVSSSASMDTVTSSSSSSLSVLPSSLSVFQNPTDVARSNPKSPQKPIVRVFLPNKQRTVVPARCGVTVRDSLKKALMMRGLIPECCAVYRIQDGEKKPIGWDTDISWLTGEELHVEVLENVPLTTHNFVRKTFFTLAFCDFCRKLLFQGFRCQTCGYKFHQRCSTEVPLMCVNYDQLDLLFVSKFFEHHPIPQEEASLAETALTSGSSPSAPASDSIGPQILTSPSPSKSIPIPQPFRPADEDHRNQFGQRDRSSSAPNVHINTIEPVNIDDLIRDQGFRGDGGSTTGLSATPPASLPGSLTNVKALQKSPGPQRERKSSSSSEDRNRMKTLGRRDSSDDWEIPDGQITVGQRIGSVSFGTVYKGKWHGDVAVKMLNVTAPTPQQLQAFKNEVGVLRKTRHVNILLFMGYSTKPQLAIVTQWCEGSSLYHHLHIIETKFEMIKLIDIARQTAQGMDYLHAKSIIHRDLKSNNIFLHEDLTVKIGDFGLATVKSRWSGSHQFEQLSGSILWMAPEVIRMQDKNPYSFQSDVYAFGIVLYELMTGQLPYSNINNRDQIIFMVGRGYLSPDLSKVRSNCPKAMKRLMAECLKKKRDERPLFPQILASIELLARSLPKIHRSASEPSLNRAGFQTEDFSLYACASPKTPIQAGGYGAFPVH
T1 sequence (P15056 whole entry V600E, the tested form may be a part): as the sequence (P15056 whole entry G466V) above, with V466G, V600E counted along it
T4 sequence (P15056 whole entry G469A): as the sequence (P15056 whole entry G466V) above, with V466G, G469A counted along it
T3 sequence (P15056 whole entry D594G): as the sequence (P15056 whole entry G466V) above, with V466G, D594G counted along it

SMILES	DC50 (BRAF V600E) [nM]	Dmax (BRAF V600E) [%]	DC50 (BRAF G466V) [nM]	Dmax (BRAF G466V) [%]	DC50 (BRAF D594G) [nM]	Dmax (BRAF D594G) [%]	DC50 (BRAF G469A) [nM]	Dmax (BRAF G469A) [%]
CCCS(=O)(=O)Nc1cccc(-c2cn(-c3ccc(N4CCN(CC5CCN(c6ccc([C@@H]7CCC(=O)NC7=O)cc6)CC5)CC4)nc3)nc2-c2ccncc2)c1F [Compound 4, N-{3-[1-(6-{4-[(1-{4-[(3S)-2,6-dioxopiperidin-3-yl]phenyl}piperidin-4-yl)methyl]piperazin-1-yl}pyridin-3-yl)-3-(pyridin-4-yl)-1H-pyrazol-4-yl]-2-fluorophenyl}propane-1-sulfonamide]	10 to 50	> 70	10 to 50	30 to 70	> 500	30 to 70	> 500	< 30
CCCS(=O)(=O)Nc1cccc(-c2nc(C3CCN(CC4CCN(C(=O)[C@H]5CC[C@H](Oc6ccc(C7CCC(=O)NC7=O)cc6)CC5)CC4)CC3)sc2-c2ccnc(N)n2)c1F (mixture of isomers) [Compound 224, N-{3-[5-(2-aminopyrimidin-4-yl)-2-[1-({1-[(1r,4r)-4-{4-[(3RS)-2,6-dioxopiperidin-3-yl]phenoxy}cyclohexanecarbonyl]piperidin-4-yl}methyl)piperidin-4-yl]-1,3-thiazol-4-yl]-2-fluorophenyl}propane-1-sulfonamide]	< 10	> 70	> 500	30 to 70	> 500	30 to 70	> 500	< 30
